Twelve compounds from PubChem BioAssay (NCI) can be followed below.

Some test systems named below: ACHN renal; CAKI-1 renal; NCI-H226 lung; RXF 393 renal; U251 CNS; UACC-62 melanoma; M14 melanoma; SR leukemia.
What all share (experiment): DTP human tumour cell line panel, 48 h

Structures are written as SMILES.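 Growth conditions: 96-well plates. Treatment: test compound, 48 hours, 5 concentrations. Analysis: linear interpolation between bracketing concentrations; unreached endpoints set to highest concentration. At the GI50, growth is halved. TGI denotes the concentration required for complete inhibition of growth.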

With `CC(=O)NNc1nc(C)c(C(=O)/C=C/c2ccc(N(C)C)cc2)s1`, the concentration for total growth inhibition (TGI) with ACHN renal, in the experiment with CAKI-1 renal, in the experiment with NCI-H226 lung, in the experiment on RXF 393 renal, with U251 CNS and in the experiment with UACC-62 melanoma was greater than 100 µM each time.
For the compound `CC(=O)[CH-]C(=O)c1ccccc1.CC(=O)[CH-]C(=O)c1ccccc1.CC(=O)[CH-]C(=O)c1ccccc1.[Cl-].[Hf+4]`, the GI50 (as a rule, the concentration that inhibits growth by half) in the experiment on ACHN renal is 31.3 µM; with CAKI-1 renal, 20.1 µM; with M14 melanoma, 18.6 µM; in the experiment with RXF 393 renal it was 47.4 µM; in the experiment with U251 CNS it was 22 µM; with UACC-62 melanoma it was 29.7 µM. Further, the TGI – broadly, the concentration at which net growth stops – is greater than 100 µM in the experiment on ACHN renal; 62.6 µM in the experiment on CAKI-1 renal; 60.8 µM in the experiment on M14 melanoma; greater than 100 µM in the experiment on RXF 393 renal; greater than 100 µM with U251 CNS; greater than 100 µM in the experiment on UACC-62 melanoma.
In the case of `COc1ccc(C(=O)C(c2ccc(OC)cc2)C2(O)C(=O)Nc3c(Cl)cc(Cl)cc32)cc1` (configuration not stated), the TGI with ACHN renal was 61.2 µM; in the experiment on CAKI-1 renal it was 49.6 µM; in the experiment on M14 melanoma, 33.6 µM; in the experiment with NCI-H226 lung, 36.5 µM; with RXF 393 renal, 39.6 µM; in the experiment with U251 CNS it was greater than 100 µM.
`O=C(CC(=O)N1N=C(n2ccc3ccccc32)CC1c1ccccc1)Nc1ccccc1Cl` (configuration not stated): the TGI in the experiment on ACHN renal, in the experiment on M14 melanoma, with RXF 393 renal, with U251 CNS and in the experiment with UACC-62 melanoma was greater than 100 µM in each case.
Turning to `CC(=O)[CH-]C(=O)c1ccccc1.CC(=O)[CH-]C(=O)c1ccccc1.CC[C@H](CCC(C)[C@H]1CCC2[C@@H]3CC=C4C[C@@H]([O-])CC[C@]4(C)C3CC[C@@]21C)C(C)C.CC[C@H](CCC(C)[C@H]1CCC2[C@@H]3CC=C4C[C@@H]([O-])CC[C@]4(C)C3CC[C@@]21C)C(C)C.Cl.[Ti+4]` (some centres not stated), the TGI with ACHN renal, in the experiment on CAKI-1 renal, in the experiment with M14 melanoma, in the experiment with NCI-H226 lung, in the experiment on RXF 393 renal and with U251 CNS was greater than 25 µM in each case. In addition, the TGI in the experiment with UACC-62 melanoma is greater than 25 µM. Moreover, the GI50 in the experiment on RXF 393 renal and in the experiment with UACC-62 melanoma was greater than 25 µM in each case.
In the case of `CC(C)(C)c1cc(Cc2ccc(S(C)(=O)=O)cc2)c(O)c(C(C)(C)C)c1`, the TGI came to 26.6 µM in the experiment with ACHN renal; 29.8 µM with CAKI-1 renal; 28.9 µM with M14 melanoma; 26.1 µM in the experiment with RXF 393 renal; 29.5 µM in the experiment with SR leukemia; 28.7 µM with U251 CNS. In addition, the TGI in the experiment with UACC-62 melanoma turned out to be 26 µM.
On to `Cc1[nH]c2ccccc2c1/C=C/c1c(C)[nH]c2ccccc12`, for which the TGI with ACHN renal, in the experiment on CAKI-1 renal, in the experiment with M14 melanoma, in the experiment on NCI-H226 lung, in the experiment with RXF 393 renal and in the experiment on U251 CNS was greater than 100 µM in each case. Besides, the TGI with UACC-62 melanoma is greater than 100 µM.
Regarding `COc1c(CC(C)=O)c2ccccc2n1C(C)=O`, the TGI with ACHN renal, with CAKI-1 renal, with M14 melanoma, in the experiment on RXF 393 renal, with SR leukemia and in the experiment with U251 CNS was greater than 100 µM in each case. The same compound yielded a TGI in the experiment on UACC-62 melanoma greater than 100 µM.
In the case of `Cc1cc(NS(=O)(=O)c2ccc(NC(=O)c3cccc4c(Nc5ccc(S(=O)(=O)Nc6cc(C)on6)cc5)c5ccc(Cl)cc5nc34)cc2)no1`, the TGI with ACHN renal, in the experiment with CAKI-1 renal, with M14 melanoma, in the experiment on RXF 393 renal, in the experiment on U251 CNS and in the experiment with UACC-62 melanoma was greater than 100 µM each time.
In the case of `[CH3][Ge]([CH3])([CH2]CC#N)[S]c1ccccc1`, the GI50 was 18 µM in the experiment with ACHN renal; 21.3 µM with CAKI-1 renal; 18.8 µM in the experiment with M14 melanoma; 13.1 µM in the experiment on NCI-H226 lung; 11.8 µM in the experiment with RXF 393 renal; 9.85 µM in the experiment on U251 CNS. In addition, the GI50 in the experiment on UACC-62 melanoma was 13.5 µM. Moreover, the TGI in the experiment on ACHN renal was 33.1 µM; with CAKI-1 renal it was 43.7 µM; in the experiment with M14 melanoma it was 43 µM; with NCI-H226 lung, 33.4 µM; with RXF 393 renal it was 27 µM; with U251 CNS, 22.6 µM. In addition, the TGI in the experiment with UACC-62 melanoma amounted to 29.8 µM.
`CCCCN(CCCC)CC(C(=O)Nc1ccc([N+](=O)[O-])cc1[N+](=O)[O-])/C(C)=N\NC(=O)c1ccncc1` (configuration not stated): the TGI in the experiment on ACHN renal, in the experiment with CAKI-1 renal, in the experiment with M14 melanoma, with RXF 393 renal, with U251 CNS and with UACC-62 melanoma was greater than 100 µM in each case.
Consider `O=C1C=C(Nc2cc(Cl)ccc2Cl)c2ccccc2C1=O`, for which the concentration for total growth inhibition (TGI) was greater than 100 µM with ACHN renal; 75.5 µM with CAKI-1 renal; 38.9 µM in the experiment on M14 melanoma; 47.8 µM in the experiment with NCI-H226 lung; greater than 100 µM in the experiment on RXF 393 renal; greater than 100 µM in the experiment with U251 CNS. In the experiment on UACC-62 melanoma, the TGI was determined as 31.4 µM.
